For series [1], the system named is TNF-α production by human monocyte strain THP-1 cells stimulated with LPS. Kind of series: Inhibition of LPS-induced TNF-α production in THP-1 cells (ELISA). Conditions: compound 10^−5M, THP-1 cells 10^6 cells/ml, LPS 2 μg/ml, 37° C., two hours; for inhibition at 10 µM: Homo sapiens, 2 h, read-out: Rate of Inhibition (%) of TNF-α production. The format is cell-based. How it is done:
Each candidate compound was inspected for the effect of inhibiting TNF-α production induced by the stimulation with lipopolysaccharide (LPS), by an in vitro test according to the method proposed by McGeehan et al. (Nature, 1994, 370:558-561).
The test (assay) was carried out by determining the amount of TNF-α produced by the human monocyte strain THP-1 cells induced by the stimulation with LPS.
The culture medium used in this test was RPMI 1640 culture medium supplemented wiTNFetal calf serum (10%), L-glutamine (2 mM), 2-mercaptoethanol (50 μM), penicillin (50 units/ml) and streptomycin (50 μg/ml).
Regarding the cells, the human monocyte strain THP-1 cells cultivated in the foregoing culture medium were centrifuged at 100 xg for 5 minutes to remove the supernatant and then again suspended in a fresh culture medium prior to the practical use. The LPS used herein was derived from S. Typhimurium and this was dissolved in purified water and then diluted with the culture medium prior to use. Each compound to be tested (candidate compound) was dissolved in dimethyl sulfoxide (DMSO) and diluted with the culture medium prior to the practical use.
The cells (10^6 cells/ml) prepared according to the foregoing method were admixed with the LPS (2 μg/ml) and a compound to be tested (10^−5M), the cells were incubated at 37° C. for two hours and then centrifuged at 1000 xg for 5 minutes. The resulting supernatant of the culture medium was inspected for the level of TNF-α using the human TNF-α-specific ELISA kit. In this connection, it was confirmed that the supernatant obtained by cultivating the cells in the culture medium free of any LPS (control) never included any TNF-α.
The rate of the TNF-α production inhibitory effect observed for each candidate compound was determined according to the following equation:
Rate of Inhibition (%)=100×(A−B)/A
Wherein A is the level of TNF-α detected in the supernatant obtained from the culture medium free of any candidate compound and B is the level of TNF-α detected in the supernatant obtained from the culture medium containing a candidate compound.
(An ELISA detects its analyte on a solid surface through an enzyme-linked reagent.)

Counter-ions that a name gives are not always drawn.

In the case of `CC(C)CCN(CCN)C(=O)N[C@H](CSSC[C@H](Cc1ccc(-c2ccccc2)cc1)NC(=O)N(CCN)CCC(C)C)Cc1ccc(-c2ccccc2)cc1.Cl.Cl` [Compound 8-2, Bis[(2S)-2-[3-(2-aminoethyl)-3-isopentylureido]-3-(4-biphenylyl)propane]-disulfide di-hydrochloride], the “Rate of Inhibition (%) of TNF-α production” value in series [1] is reported as 66%.

As for `CC(=O)SC[C@H](Cc1ccccc1)NC(=O)N(CCC(C)C)CCN(C)C` [Compound 6-8, 1-[(1S)-2-(Acetylthio)-1-benzylethyl]-3-[2-(dimethylamino)ethyl]-3-isopentyl urea], the inhibition – broadly, the percentage by which the read-out fell short of the control – at 10 µM in series [1] worked out at 60%.

With `CC(=O)SCCN(CCc1ccccc1)C(=O)N[C@@H](Cc1ccccc1)CN(C)C` [Compound 6-3, 1-[2-(Acetylthio)ethyl]-3-[(1S)-1-benzyl-2-(dimethylamino)ethyl]-1-phenethyl urea], the inhibition at 10 µM in series [1] was 83%.

For the compound `CC(=O)SC[C@H](Cc1ccc(-c2ccccc2)cc1)NC(=O)N(CCC(C)C)CCN(C)C` [Compound 6-11, 1-[(1S)-2-(Acetylthio)-1-[(4-biphenylyl)methyl]ethyl]-3-[2-(dimethylamino)-ethyl]-3-isopentyl urea], the inhibition at 10 µM in series [1] amounted to 76%.

Consider `CC(C)CCN(CCN)C(=O)N[C@H](CSSC[C@H](Cc1ccccc1)NC(=O)N(CCN)CCC(C)C)Cc1ccccc1` [Compound 8-1, Bis[(2S)-2-[3-(2-aminoethyl)-3-isopentylureido]-3-phenylpropane] Disulfide di-hydrochloride], for which the inhibition at 10 µM in series [1] was 81%.

In the case of `CC(C)CCN(CCN)C(=O)N[C@H](CSSC[C@H](Cc1ccccc1)NC(=O)N(CCN)CCC(C)C)Cc1ccccc1` (as salt: hydrochloride) [Compound 8-1, Bis[(2S)-2-[3-(2-aminoethyl)-3-isopentylureido]-3-phenylpropane] Disulfide di-hydrochloride], the melting point (in general, the temperature of the solid-liquid transition) is 100 °C (dec.).

The values above are taken from patent publication US6683200B2, “N-substituted-N′-substituted urea derivatives and pharmaceutical compositions containing the derivatives” (Santen Pharmaceutical Co., Ltd., priority 1999, dated 2004).
